Experimental findings from patent US11078202B2, “β-lactamase inhibitor and use thereof” (priority 2018, dated 2021) are described below.

Where a name gives a salt, the structure may show the parent alone.

Holding throughout (format): cell-based
For experiment [1], the system named is Klebsiella pneumoniae XNWB 0003. As to the kind of experiment: MIC assay of test compounds combined with ceftazidime (8 μg/mL). As to conditions: ceftazidime 8 μg/mL fixed. The gist of the method: (§1)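 Strains were revived from −80 °C stocks on TSA, subcultured, and single colonies were resuspended in saline to OD600 0.1-0.15. After a 300-fold dilution in 1.1×CAMHB, cells were combined with diluted compound and a fixed antibiotic. Growth was assessed after 16-20 h at 35±2 °C.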

The test system of experiment [2] is Pseudomonas aeruginosa XNWB 0008. The experiment is described as above. As to conditions: ceftazidime 8 μg/mL fixed. The gist of the method:
as §1

For experiment [3], the system named is Acinetobacter baumannii XNWB 0007. The experiment is described as above. As to conditions: ceftazidime 8 μg/mL fixed. The gist of the method: as §1
Experiment [4] has as its system Klebsiella pneumoniae XNWB 0002. The description is as above. As to conditions: ceftazidime 8 μg/mL fixed. The gist of the method:
as §1

Experiment [5] relates to Klebsiella pneumoniae XNWB 0004. The experiment is described as above. As to conditions: ceftazidime 8 μg/mL fixed. In outline: as §1
Experiment [6] relates to Klebsiella pneumoniae XNWB 0005. The description is as above. As to conditions: ceftazidime 8 μg/mL fixed. The gist of the method:
as §1

Experiment [7] concerns Klebsiella pneumoniae XNWB 0006. Described as above. As to conditions: ceftazidime 8 μg/mL fixed. In outline:
as §1

The test system of experiment [8] is Klebsiella pneumoniae XNWB 0001. Described as above. The note with it: ceftazidime 8 μg/mL fixed. The gist of the method: as §1
In experiment [9] the test system is Klebsiella pneumoniae XNWB 0003. As to the kind of experiment: MIC assay of test compounds combined with imipenem (4 μg/mL). The note with it: imipenem 4 μg/mL fixed. In outline: as §1
Experiment [10] has as its system Pseudomonas aeruginosa XNWB 0008. Described as above. As to conditions: imipenem 4 μg/mL fixed. The gist of the method:
as §1

For experiment [11], the system named is Acinetobacter baumannii XNWB 0007. The description is as above. As to conditions: imipenem 4 μg/mL fixed. The gist of the method: as §1
Experiment [12] relates to Klebsiella pneumoniae XNWB 0002. The experiment is described as above. As to conditions: imipenem 4 μg/mL fixed. The gist of the method: as §1
Experiment [13] relates to Klebsiella pneumoniae XNWB 0004. The experiment is described as above. The note with it: imipenem 4 μg/mL fixed. In outline:
as §1

Experiment [14] deals with Klebsiella pneumoniae XNWB 0005. The experiment is described as above. The note with it: imipenem 4 μg/mL fixed. The gist of the method:
as §1

The test system of experiment [15] is Klebsiella pneumoniae XNWB 0006. The experiment is described as above. The note with it: imipenem 4 μg/mL fixed. The gist of the method: as §1
The test system of experiment [16] is Klebsiella pneumoniae XNWB 0001. Described as above. The note with it: imipenem 4 μg/mL fixed. In outline: as §1

Turning to `NCCNC[C@H](O)c1nnc([C@@H]2CC3(CC3)[C@@H]3CN2C(=O)N3OS(=O)(=O)O)o1` [Example 31, (1R,4S)-4-(5-((S)-2-((2-aminoethyl)amino)-1-hydroxyethyl)-1,3,4-oxadiazol-2-yl)-6-oxo-5,7-diazaspiro[bicyclo[3.2.1]octane-2,1′-cyclopropan]-7-yl sulfate], the “The minimum concentration of test compounds combined with ceftazidime (8 μg/mL) for bacteriostasis” value is recorded as “A (A: <8 μg/mL)” in experiment [1]; “C (C: 16-128 μg/mL)” in experiment [2]; “C (C: 16-128 μg/mL)” in experiment [3]; “A (A: <8 μg/mL)” in experiment [4]; “B (B: 8-16 μg/mL)” in experiment [5]; “A (A: <8 μg/mL)” in experiment [6]. The “The minimum concentration of test compounds combined with ceftazidime (8 μg/mL) for bacteriostasis” value in experiment [7] and in experiment [8] was “A (A: <8 μg/mL)” in each case. The “The minimum concentration of test compounds combined with imipenem (4 μg/mL) for bacteriostasis” value is “A (A: <8 μg/mL)” in experiment [9]; “B (B: 8-16 μg/mL)” in [10]; “B (B: 8-16 μg/mL)” in [11]; “A (A: <8 μg/mL)” in [12]; “A (A: <8 μg/mL)” in experiment [13]; “A (A: <8 μg/mL)” in [14]. For the same compound, the “The minimum concentration of test compounds combined with imipenem (4 μg/mL) for bacteriostasis” value in experiment [15] and in experiment [16] was “A (A: <8 μg/mL)” throughout.

Turning to `N=C(N)NC[C@@H](O)c1nnc([C@@H]2CC3(CC3)[C@@H]3CN2C(=O)N3OS(=O)(=O)O)o1` [Example 11, (1R,4S)-4-(5-((R)-2-guanidyl-1-hydroxyethyl)-1,3,4-oxadiazol-2-yl)-6-oxo-5,7-diazaspiro[bicyclo[3.2.1]octane-2,1′-cyclopropan]-7-yl sulfate], the “The minimum concentration of test compounds combined with ceftazidime (8 μg/mL) for bacteriostasis” value in [1] is “A (A: <8 μg/mL)”; in [2] it was “C (C: 16-128 μg/mL)”; in experiment [3] it was “C (C: 16-128 μg/mL)”; in experiment [4], “A (A: <8 μg/mL)”; in [5], “A (A: <8 μg/mL)”; in [6] it was “A (A: <8 μg/mL)”. Besides, the “The minimum concentration of test compounds combined with ceftazidime (8 μg/mL) for bacteriostasis” value in [7] and in experiment [8] was “A (A: <8 μg/mL)” each time. Also, the “The minimum concentration of test compounds combined with imipenem (4 μg/mL) for bacteriostasis” value in experiment [9] is on record as “A (A: <8 μg/mL)”; in [10] it was “B (B: 8-16 μg/mL)”; in experiment [11] it was “B (B: 8-16 μg/mL)”; in experiment [12], “A (A: <8 μg/mL)”; in [13] it was “A (A: <8 μg/mL)”; in experiment [14], “A (A: <8 μg/mL)”. Moreover, the “The minimum concentration of test compounds combined with imipenem (4 μg/mL) for bacteriostasis” value in experiment [15] and in [16] was “A (A: <8 μg/mL)” throughout.
